Columns and labels:
PC12h cells = assay: Prevention of glutamate-induced cell death (apoptosis) in PC12h cells, surviving cells by LDH activity; assay type: cell-based, rat; conditions: 1 mM glutamate, 72 hours, mean of 3 wells
Protocol: Substrain PC12h cells of rat-derived pheochromocytoma PC12 h cells were handed out by Professor Hiroshi Hatanaka of Osaka University. Dulbecco's modified Eagle's medium (DMEM) was purchased from Nissui Seiyaku K.K., HEPES (N-2-hydroxyethylpiperazine-N′-2-ethanesulfonic acid) buffer (pH 7.4), horse serum (HS) and a penicillin (5000 U/ml)/streptomycin (5 mg/ml) mixture from Gibco, fetal calf serum (FCS) from BioWhittaker, Inc., transferrin, insulin and progesterone from Sigma, Inc. A flask for incubation and a collagen-coated 96-well multi-well plate used were manufactured by Falcon Co., Ltd. and Iwaki Glass Co., Ltd., respectively. LDH cytotoxic test Wako was purchased from Wako Pure Chemical Industries, Ltd. Other reagents used were special grade chemicals commercially available.
PC12h cells were inoculated on the 96-well plate in 2×10^4 cells/cm^2. On the following day, the medium was exchanged with HEPES/DME medium containing […] and 20 nM progesterone. The cells survived 72 hours after were counted. The cell number was determined by solubilizing the cells survived in PBS containing Tween 20 after removal of the medium and assaying in terms of the LDH activity.
In PC12h cells, glutamate in the medium hampers uptake of cystine, or a material to make glutathione, into cells. Thus, when 1 mM or more glutamates are added to a medium and incubation is continued for 3 days or longer, it is known that PC12h cells become extinct due to apoptosis accompanied by a reduced level of glutathione in the cells.

[1] = tested on: sAPP Secretion in Rat-Derived Pheochromocytoma PC12h Cells; assay: sAPP secretion promoting activity in PC12h cells (Western blotting of culture supernatant); assay type: cell-based; conditions: 3 hours after addition
Protocol: Substrain PC12 h cells of rat-derived pheochromocytoma PC12 h cells (Brain Res., 222 (191), p. 225-233) were handed out by Professor Hiroshi Hatanaka of Osaka University. Dulbecco's modified Eagle's medium (DMEM) was purchased from Nissui Seiyaku K.K., HEPES (N-2-hydroxyethylpiperazine-N′-2-ethanesulfonic acid) buffer (pH 7.4), horse serum (HS) and a penicillin (5000 U/ml)/streptomycin (5 mg/ml) mixture from Gibco, and fetal calf serum (FCS) from BioWhittaker, Inc. A flask for incubation and a 6-well multi-well plate coated with collagen manufactured by Falcon Co., Ltd. and Iwaki Glass Co., Ltd., respectively, were used. Anti-βAPP 22C11 antibody was purchased from Roche Diagnostics, Inc. Other reagents used were special grade chemicals commercially available.
PC12h cells were grown in DMEM medium supplemented with 10% FCS/5% HS/penicillin-streptomycin, the cells were taken out by pipetting. The cells were inoculated on the collagen-coated 6-well plate to become 50-70% confluent, which was allowed to stand for a day. On the following day, the well was rinsed twice with 1 ml of […] HEPES/DMEM. […]
The culture supernatant was concentrated by ultrafiltration using Microcon 10 (Amicon, Inc.). […] ECL Plus (Amersham, Inc.) was used for detection, followed by digitalization in Fluor-S Max (Bio-Rad Laboratories) and quantification using NIH-image.

melting point [°C] | SMILES | Surviving Rate (%) (PC12h cells; 0.1 μM compound) | Surviving Rate (%) (PC12h cells; 0.3 μM compound) | Surviving Rate (%) (PC12h cells; 1.0 μM compound) | Surviving Rate (%) (PC12h cells; 3.0 μM compound) | Surviving Rate (%) (PC12h cells; 10.0 μM compound) | sAPP secretion level (relative value to the control group, when the control group is made 100) ([1]; 3 μM of each compound, mean of 3 wells, anti-βAPP 22C11 Western blotting quantified with NIH Image) | sAPP level increase as compared to the control group ([1]; 3 μM, mean relative value in 3 wells (FIG. 2)) [times]
– | COc1ccc(C(=O)N2c3ccccc3[C@H](Nc3ccccc3)C[C@@H]2C)cc1OC (relative stereo) [Compound 1-3, cis-1-(3,4-dimethoxybenzoyl)-2-methyl-N-phenyl-1,2,3,4-tetrahydro-4-quinolinamine] | 4.89 | 7.44 | 49.17 | 77.51 | 63.24 | 325.14 | 3.3
146 to 148 | CCC1CC(N(C)c2ccccc2)c2ccccc2N1C(=O)c1ccc(OC)c(OC)c1 (centres unmarked) [Example 54, 1-(3,4-Dimethoxybenzoyl)-2-ethyl-N-methyl-N-phenyl-1,2,3,4-tetrahydro-4-quinolinamine] | – | – | – | – | – | – | –

Source: patent US20030216398A1, “Soluble beta amyloid precursor protein secretion promoters” (priority 2002, published 2003)
